These results are taken from ChEMBL document CHEMBL1154462, “Synthesis and in vitro anti-bacterial evaluation of tetracyclic-ortho-fused 4H-naphtho[1',2'-5,6]pyrano[3,4-d](1,2,3)selenadiazole and its derivatives” (2008).

In general, MIC refers to the least concentration at which growth counts as inhibited. Read a low MIC as a more susceptible organism.

What all share (assay type): functional
Assay [1] relates to Staphylococcus aureus. Kind of assay: Antibacterial activity against Staphylococcus aureus isolate by agar cup method.
Assay [2] has as its system Bacillus subtilis. Description: Antibacterial activity against Bacillus subtilis isolate by agar cup method.
The subject of assay [3] is Escherichia coli. Kind of assay: Antibacterial activity against Escherichia coli isolate by agar cup method.
Assay [4] has as its system Pseudomonas aeruginosa. Description: Antibacterial activity against Pseudomonas aeruginosa isolate by agar cup method.

In brackets after ≈: the same amount, converted by molar mass.

Take `Brc1cccc2c3c(ccc12)OCc1[se]nnc1-3`: the MIC in assay [1] worked out at 50 µg/mL (≈ 137 µM); in assay [2] it was 100 µg/mL (≈ 273 µM); in assay [3], 250 µg/mL (≈ 683 µM); in assay [4], 1000 µg/mL (≈ 2730 µM).
For `Brc1ccc2c3c(ccc2c1)OCc1[se]nnc1-3`, the minimal inhibitory concentration (MIC) was found to be 50 µg/mL (≈ 137 µM) in assay [1], 100 µg/mL (≈ 273 µM) in assay [2], 50 µg/mL (≈ 137 µM) in assay [3] and 500 µg/mL (≈ 1370 µM) in assay [4].
On to `CC1Oc2ccc3ccccc3c2-c2nn[se]c21` (stereo not given), for which the MIC stood at 250 µg/mL (≈ 830 µM) in assay [1], 250 µg/mL (≈ 830 µM) in assay [2], 500 µg/mL (≈ 1660 µM) in assay [3] and 1000 µg/mL (≈ 3320 µM) in assay [4].
In the case of `CC1Oc2ccc3cc(Br)ccc3c2-c2nn[se]c21` (stereo not given), the minimum inhibitory concentration (MIC) in assay [1] was 500 µg/mL (≈ 1320 µM); in assay [2] it was 50 µg/mL (≈ 132 µM); in assay [3], 500 µg/mL (≈ 1320 µM); in assay [4], 1000 µg/mL (≈ 2630 µM).
With `c1ccc2c3c(ccc2c1)OCc1[se]nnc1-3`, the MIC in assay [1] is 250 µg/mL (≈ 871 µM); in assay [2], 250 µg/mL (≈ 871 µM); in assay [3], 250 µg/mL (≈ 871 µM); in assay [4], 1000 µg/mL (≈ 3480 µM).
